How the values were obtained:
[1] = test system: A549 (human lung cancer cells); test: MTT cancer cell growth inhibition; assay type: cell-based; settings: 72 h
Summary of the method: (§1)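 1500 cells/well, DMEM or 1640 + 10% FBS, overnight 37 °C/5% CO2; cpd 10^−5–10^−10 M final, triplicate, 72 h; 0.1% DMSO vehicle; MTT 4 h; DMSO solubilisation; A570; % survival.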

[2] = test system: Hela (human cervical cancer cells); test: MTT cancer cell growth inhibition; assay type: cell-based; settings: 72 h
Summary of the method: as §1

[3] = test system: HT1080 (human fibrosarcoma cells); test: MTT cancer cell growth inhibition; assay type: cell-based; settings: HT-1080, 72 h
Summary of the method: as §1

[4] = test system: BGC-823 (human gastric cancer cells); test: MTT cancer cell growth inhibition; assay type: cell-based; settings: 72 h, read-out: GI50 BGC823
Summary of the method: as §1

[5] = test system: U937 (human leukemia cells); test: MTT cancer cell growth inhibition; assay type: cell-based; settings: U-937, 72 h
Summary of the method: as §1

[6] = test system: DU145 (human prostate cancer cells); test: MTT cancer cell growth inhibition; assay type: cell-based; settings: DU-145, 72 h
Summary of the method: as §1

[7] = test system: MOLT-4 (human acute lymphoblastic leukemia cells); test: MTT cancer cell growth inhibition; assay type: cell-based; settings: 72 h
Summary of the method: as §1

[8] = test system: PANC-1; test: MTT cancer cell growth inhibition; assay type: cell-based; settings: Homo sapiens, 72 h
Summary of the method: as §1

[9] = test system: MCF-7 (human breast cancer cells); test: MTT cancer cell growth inhibition; assay type: cell-based; settings: MCF7, 72 h
Summary of the method: as §1

[10] = target: HDAC1 (Homo sapiens, UniProt Q13547); test: Measurement of biochemical activities of HDAC (fluorescently-labeled acetylated lysine substrate); settings: read-out: IC50 HDAC1
HDAC1, sequence (Q13547 whole entry, species assumed, canonical isoform): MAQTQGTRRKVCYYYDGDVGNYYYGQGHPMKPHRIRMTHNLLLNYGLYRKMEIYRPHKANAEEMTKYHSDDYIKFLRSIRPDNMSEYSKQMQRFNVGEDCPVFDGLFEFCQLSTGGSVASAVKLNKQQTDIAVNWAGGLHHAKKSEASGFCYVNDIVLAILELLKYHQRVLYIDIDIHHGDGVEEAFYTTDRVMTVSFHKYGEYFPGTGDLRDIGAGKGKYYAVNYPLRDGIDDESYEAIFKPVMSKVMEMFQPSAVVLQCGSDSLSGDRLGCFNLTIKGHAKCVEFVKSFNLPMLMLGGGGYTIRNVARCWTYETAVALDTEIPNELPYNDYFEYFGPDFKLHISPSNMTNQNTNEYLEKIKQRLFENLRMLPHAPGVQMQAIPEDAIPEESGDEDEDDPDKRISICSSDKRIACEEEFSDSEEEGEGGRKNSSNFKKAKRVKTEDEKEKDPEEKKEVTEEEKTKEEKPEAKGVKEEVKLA
Summary of the method: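 For both HDAC isoforms, fluorescent acetyl-lysine substrate ([…] in reaction) incubated with enzyme and compounds for 30 min at 37; developer then added for 15 min at room temperature. Fluorescence read at excitation 360 nm, emission 460 nm.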

[11] = test system: Human Gastric Adenocarcinoma Cell BGC-823; test: Subcutaneously transplanted tumors in nude mice; assay type: in vivo; settings: 20 mg/kg
Description: (§2) Tumor tissues in the vigorous growth period are cut into about 1.5 mm^3, and inoculated to the right axilla subcutaneous layer of the nude mice under aseptic conditions. For the subcutaneously transplanted tumors of the nude mice, the diameter of the transplanted tumors is measured by a vernier caliper. The mice are randomly grouped after the tumors grow to 100-200 mm^3. […] The diameter of the transplanted tumors is measured twice per week in the whole experimental process, and meanwhile the weight of the mice is weighed. The calculation formula of tumor volume (TV) is TV=½×a×b^2, where a and b represent length and width, respectively.
(§3) The relative tumor volume (RTV) is calculated according to the measured results, with the following calculation formula: RTV=Vt/V0, where V0 is the tumor volume obtained by measurement during administration in different cages (i.e., d0), Vt is the tumor volume obtained by measurement at each time. […] (Wc−WT)Wc×100%, where Wc is the tumor weight of the control group, and WT is the tumor weight of the treatment group.

[12] = test system: Human Melanoma Cell A875; test: Subcutaneously transplanted tumors in nude mice; assay type: in vivo; settings: 20 mg/kg
Description: as §2, §3

[13] = test system: Human Blood Acute Monocytic Leukemia U937; test: Subcutaneously transplanted tumors in nude mice; assay type: in vivo; settings: 20 mg/kg
Description: as §2, §3

[14] = test system: Human Lymphoma Cell Ramos; test: Subcutaneously transplanted tumors in nude mice; assay type: in vivo; settings: 20 mg/kg
Description: as §2, §3

[15] = test system: Human Lung Caner Cell NCI-H1975; test: Subcutaneously transplanted tumors in nude mice; assay type: in vivo; settings: 20 mg/kg
Description: as §2, §3

Compound	GI50 [1]	GI50 [2]	GI50 [3]	GI50 [4]	GI50 [5]	GI50 [6]	GI50 [7]	GI50 [8]	GI50 [9]	IC50 [10]	Tumor Inhibition Rate (1 − T/C) × 100% [11]	Tumor Inhibition Rate (1 − T/C) × 100% [12]	Tumor Inhibition Rate (1 − T/C) × 100% [13]	Tumor Inhibition Rate (1 − T/C) × 100% [14]	Tumor Inhibition Rate (1 − T/C) × 100% [15]
C/C=C1\NC(=O)c2csc(n2)CNC(=O)C[C@@H](/C=C/CCSC(=O)CCCCCCC)OC(=O)[C@H](C)NC1=O [Compound 1-4]	2900 nM	1300 nM	800 nM	2500 nM	30 nM	360 nM	100 nM	1600 nM	200 nM	< 1000 nM	–	–	–	–	–
C/C=C1\NC(=O)c2csc(n2)CNC(=O)C[C@@H](/C=C/CCSC(=O)CCCCCCC)OC(=O)[C@H](Cc2ccc(O)cc2)NC1=O [Compound 1-8]	100 nM	100 nM	70 nM	300 nM	20 nM	30 nM	20 nM	100 nM	100 nM	< 102 nM	56.83%	68.07%	68.32%	58.33%	53.23%
C/C=C1\NC(=O)c2csc(n2)CNC(=O)C[C@@H](/C=C/CCSC(=O)CCCCCCC)OC(=O)[C@H](C(C)C)NC1=O [Compound 1-3]	10000 nM	1000 nM	4000 nM	60 nM	500 nM	300 nM	1000 nM	6000 nM	1200 nM	< 10000 nM	59.38%	63.89%	65.21%	70.08%	56.40%
C/C=C1\NC(=O)c2csc(n2)CNC(=O)C[C@@H](/C=C/CCSC(=O)CCCCCCC)OC(=O)[C@H](Cc2ccccc2)NC1=O [Compound 1-7]	400 nM	5000 nM	300 nM	300 nM	20 nM	20 nM	100 nM	1500 nM	700 nM	< 10000 nM	–	–	–	–	–
O=C(CCCCCCC(=O)Nc1ccccc1)NO [SAHA, suberoylanilide hydroxamic acid, reference compound]	7700 nM	37800 nM	3800 nM	4500 nM	2310 nM	–	–	7460 nM	1800 nM	–	–	–	–	–	–
C/C=C1\NC(=O)c2csc(n2)CNC(=O)C[C@@H](/C=C/CCSC(=O)CCCCCCC)OC(=O)[C@H](C(C)(C)C)NC1=O [Compound 1-6]	500 nM	1000 nM	1300 nM	400 nM	200 nM	50 nM	1000 nM	3000 nM	600 nM	< 10000 nM	60.26%	66.64%	66.37%	60.94%	59.19%

Source: patent US8933195B2, “Histone deacetylase inhibitors and synthetic method thereof and use thereof in manufacture of medicaments” (Nanjing Yoko Biomedical R & D Ltd., priority 2011, dated 2015)
